# Test results published in US20250171461A1, “STIMULATOR OF INTERFERON GENES (STING) MODULATORS, AND COMPOSITIONS AND METHODS THEREOF” (Geode Therapeutics Inc., priority 2022, published 2025).
# Target: T1, human HAQ STING isoform (hSTING HAQ) (Homo sapiens, UniProt Q86WV6, G230A/H232R/R293Q/R71H)
# T1 construct: THP1 cells express the naturally occurring human HAQ STING isoform (hSTING HAQ); host or cells: THP1
# Experiment: IFN-β mRNA level in THP1 cells (qPCR, STING agonist cellular activity)
# Type: cell-based
# Conditions: compound at 3.6 μM, 2 hrs, IFNβ expression normalized against GAPDH by the 2^-ΔΔCT method, DMSO = 1.0
# Protocol: Cellular activity of STING agonists was determined by mRNA levels of IFN-β in THP1 (Otwo Biotech HTX1621) cell line. THP1 cells express the naturally occurring human HAQ STING isoform (hSTING HAQ), which responses to the activation of STING agonists.
# THP1 cells were seeded into Falcon 12-well cell Culture Plate (Corning #353043) at 9×10^5 cells per well, in 1 ml complete culture medium (RPMI-1640, GIBCO #C1187500BT) containing 10% heat inactivated FBS (GIBCO #10099141C), 1% Pen-Strep (HyClone SV30010) and incubated at 37° ΔC, 5% CO2 overnight. On day 2, compound (final concentration at 3.6 μM) or DMSO (0.1%, Sigma Aldrich #8418) was added to THP1 cells and further incubated for 2 hrs min at 37° ΔC, 5% CO2. Cells were then collected for RNA extraction.
# Total RNA was extracted with TRIzol reagent (Invitrogen #15596026) and […] was used to synthesize first-strand cDNA with Maxima First Strand cDNA Synthesis Kit (TAKARA #RR036A). Quantitative PCR was performed with Maxima SYBR Green qPCR Master Mix (ABI #4367659, USA). The primer sequences used were as follows: GAPDH (5′-[…]-3′, 5′-[…]-3′). INFP3 (5′-[…]-3′,5′-[…]-3′) Real-time PCR was performed on QuantStudio™ 5 Real-Time PCR System (Thermo Fisher). Relative expression levels of IFNβ gene were normalized against the level of GAPDH expression by the 2^−ΔΔCT method. Each PCR reaction was performed in triplicates.
# T1 sequence (Q86WV6 whole entry R71H/G230A/H232R/R293Q, canonical isoform): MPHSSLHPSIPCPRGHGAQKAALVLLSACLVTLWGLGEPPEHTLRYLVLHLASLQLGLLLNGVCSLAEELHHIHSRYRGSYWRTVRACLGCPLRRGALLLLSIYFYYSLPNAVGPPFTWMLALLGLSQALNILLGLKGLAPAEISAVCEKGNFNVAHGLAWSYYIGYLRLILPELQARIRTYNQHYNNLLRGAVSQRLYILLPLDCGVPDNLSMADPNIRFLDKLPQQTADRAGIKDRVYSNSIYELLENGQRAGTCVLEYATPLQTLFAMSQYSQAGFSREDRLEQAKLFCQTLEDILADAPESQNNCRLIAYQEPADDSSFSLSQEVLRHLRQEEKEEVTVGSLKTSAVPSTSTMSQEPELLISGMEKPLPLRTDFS
row,SMILES,Relative mRNA INFβ/GAPDH THP 1
1,"CC1COc2c(F)c(F)cc3c(=O)c(CN(Cc4ccncc4)[C@H]4CCCN(c5ccc(N)nc5)C4)cn1c23 (stereo partly drawn) [Compound 2, 6-((((S)-1-(6-aminopyridin-3-yl)piperidin-3-yl)(pyridin-4-ylmethyl)amino)methyl)-9,10-difluoro-3-methyl-2H-[1,4]oxazino[2,3,4-ij]quinolin-7(3H)-one]",1261.9
2,"Cc1cc(CN(Cc2cn3c4c(c(F)c(F)cc4c2=O)OCC3C)[C@H]2CCCN(c3ccc(N)nc3)C2)ccn1 (stereo partly drawn) [Compound 3, 6-((((S)-1-(6-aminopyridin-3-yl)piperidin-3-yl)((2-methylpyridin-4-yl)methyl)amino)methyl)-9,10-difluoro-3-methyl-2H-[1,4]oxazino[2,3,4-ij]quinolin-7(3H)-one]",1356.3
3,"COc1cc(CN(Cc2cn3c4c(c(F)c(F)cc4c2=O)OCC3C)[C@H]2CCCN(c3ccc(N)nc3)C2)c(Cl)cn1 (stereo partly drawn) [Compound 4, 6-((((S)-1-(6-aminopyridin-3-yl)piperidin-3-yl)((5-chloro-2-methoxypyridin-4-yl)methyl)amino)methyl)-9,10-difluoro-3-methyl-2H-[1,4]oxazino[2,3,4-ij]quinolin-7(3H)-one]",587.4
4,"COc1cc(CN(Cc2cn3c4c(c(F)c(F)cc4c2=O)OC[C@H]3C)[C@H]2CCCN(c3ccc(N)nc3)C2)ccn1 [Compound 5, (R)-6-((((S)-1-(6-aminopyridin-3-yl)piperidin-3-yl)((2-methoxypyridin-4-yl)methyl)amino)methyl)-9,10-difluoro-3-methyl-2H-[1,4]oxazino[2,3,4-ij]quinolin-7(3H)-one]",1627.5
5,"COc1cc(CN(Cc2cn3c4c(c(F)c(F)cc4c2=O)OC[C@@H]3C)[C@H]2CCCN(c3ccc(N)nc3)C2)ccn1 [Compound 6, (S)-6-((((S)-1-(6-aminopyridin-3-yl)piperidin-3-yl)((2-methoxypyridin-4-yl)methyl)amino)methyl)-9,10-difluoro-3-methyl-2H-[1,4]oxazino[2,3,4-ij]quinolin-7(3H)-one]",1595.2
6,"COc1cc(CCN(Cc2cn3c4c(c(F)c(F)cc4c2=O)OCC3C)[C@H]2CCCN(c3ccc(N)nc3)C2)ccn1 (stereo partly drawn) [Compound 8, 6-((((S)-1-(6-aminopyridin-3-yl)piperidin-3-yl)(2-(2-methoxypyridin-4-yl)ethyl)amino)methyl)-9,10-difluoro-3-methyl-2H-[1,4]oxazino[2,3,4-ij]quinolin-7(3H)-one]",5.7
7,"CNc1ccc(N2CCC[C@H](N(Cc3ccnc(OC)c3)Cc3cn4c5c(c(F)c(F)cc5c3=O)OCC4C)C2)cn1 (stereo partly drawn) [Compound 16, 9,10-difluoro-6-((((2-methoxypyridin-4-yl)methyl)((S)-1-(6-(methylamino)pyridin-3-yl)piperidin-3-yl)amino)methyl)-3-methyl-2H-[1,4]oxazino[2,3,4-ij]quinolin-7(3H)-one]",114.6

# The next lines start with the values.
row,Relative mRNA INFβ/GAPDH THP 1,SMILES
1,65.3,"COc1cc(CN(Cc2cn3c4c(c(F)c(F)cc4c2=O)OCC3C)[C@H]2CCCN(c3ccc(NC(C)=O)nc3)C2)ccn1 (stereo partly drawn) [Compound 7, N-(5-((3S)-3-(((9,10-difluoro-3-methyl-7-oxo-3,7-dihydro-2H-[1,4]oxazino[2,3,4-ij]quinolin-6-yl)methyl)((2-methoxypyridin-4-yl)methyl)amino)piperidin-1-yl)pyridin-2-yl)acetamide]"
2,332.6,"Cc1ccc(N2CCC[C@H](N(Cc3ccnc(C)c3)Cc3cn4c5c(c(F)c(F)cc5c3=O)OCC4C)C2)cn1 (stereo partly drawn) [Compound 9, 9,10-difluoro-3-methyl-6-((((S)-1-(6-methylpyridin-3-yl)piperidin-3-yl)((2-methylpyridin-4-yl)methyl)amino)methyl)-2H-[1,4]oxazino[2,3,4-ij]quinolin-7(3H)-one]"
3,336.8,"Cc1cc(CN(Cc2cn3c4c(c(F)c(F)cc4c2=O)OCC3C)[C@H]2CCCN(c3cccnc3)C2)ccn1 (stereo partly drawn) [Compound 10, 9,10-difluoro-3-methyl-6-((((2-methylpyridin-4-yl)methyl)((S)-1-(pyridin-3-yl)piperidin-3-yl)amino)methyl)-2H-[1,4]oxazino[2,3,4-ij]quinolin-7(3H)-one]"
4,65.6,"Cc1ccc(N2CCC[C@H](N(Cc3ccnc(N)c3)Cc3cn4c5c(c(F)c(F)cc5c3=O)OCC4C)C2)cn1 (stereo partly drawn) [Compound 11, 6-((((2-aminopyridin-4-yl)methyl)((S)-1-(6-methylpyridin-3-yl)piperidin-3-yl)amino)methyl)-9,10-difluoro-3-methyl-2H-[1,4]oxazino[2,3,4-ij]quinolin-7(3H)-one]"
5,14.1,"Cc1cc(CN(Cc2cn3c4c(c(F)c(F)cc4c2=O)OCC3C)[C@H]2CCCN(c3ccc(C#N)nc3)C2)ccn1 (stereo partly drawn) [Compound 12, 5-((3S)-3-(((9,10-difluoro-3-methyl-7-oxo-3,7-dihydro-2H-[1,4]oxazino[2,3,4-ij]quinolin-6-yl)methyl)((2-methylpyridin-4-yl)methyl)amino)piperidin-1-yl)picolinonitrile]"
6,3.6,"Cc1cc(CN(Cc2cn3c4c(c(F)c(F)cc4c2=O)OCC3C)[C@H]2CCCN(c3ccc(C(N)=O)nc3)C2)ccn1 (stereo partly drawn) [Compound 13, 5-((3S)-3-(((9,10-difluoro-3-methyl-7-oxo-3,7-dihydro-2H-[1,4]oxazino[2,3,4-ij]quinolin-6-yl)methyl)((2-methylpyridin-4-yl)methyl)amino)piperidin-1-yl)picolinamide]"
7,3848.9,"Cc1cc(CN(Cc2cn3c4c(c(F)c(F)cc4c2=O)OCC3C)[C@H]2CCCN(c3cnccn3)C2)ccn1 (stereo partly drawn) [Compound 14, 9,10-difluoro-3-methyl-6-((((2-methylpyridin-4-yl)methyl)((S)-1-(pyrazin-2-yl)piperidin-3-yl)amino)methyl)-2H-[1,4]oxazino[2,3,4-ij]quinolin-7(3H)-one]"
8,5.8,"COc1cc(CN(Cc2cn3c4c(c(F)c(F)cc4c2=O)OCC3C)[C@H]2CCN(c3ccc(N)nc3)C2)ccn1 (stereo partly drawn) [Compound 15, 6-((((S)-1-(6-aminopyridin-3-yl)pyrrolidin-3-yl)((2-methoxypyridin-4-yl)methyl)amino)methyl)-9,10-difluoro-3-methyl-2H-[1,4]oxazino[2,3,4-ij]quinolin-7(3H)-one]"
9,6.7,"COc1cc(CN(Cc2cn3c4c(c(F)c(F)cc4c2=O)OCC3C)[C@H]2CCCN(c3ccc(N4CCCC4)nc3)C2)ccn1 (stereo partly drawn) [Compound 17, 9,10-difluoro-6-((((2-methoxypyridin-4-yl)methyl)((S)-1-(6-(pyrrolidin-1-yl)pyridin-3-yl)piperidin-3-yl)amino)methyl)-3-methyl-2H-[1,4]oxazino[2,3,4-ij]quinolin-7(3H)-one]"
10,4.8,"COc1cc(CN(Cc2cn3c4c(c(F)c(F)cc4c2=O)OCC3C)[C@H]2CCCN(c3ccc(N4CCCC4=O)nc3)C2)ccn1 (stereo partly drawn) [Compound 18, 9,10-difluoro-6-((((2-methoxypyridin-4-yl)methyl)((S)-1-(6-(2-oxopyrrolidin-1-yl)pyridin-3-yl)piperidin-3-yl)amino)methyl)-3-methyl-2H-[1,4]oxazino[2,3,4-ij]quinolin-7(3H)-one]"
